Source: patent US6313177A, “D-mannitol derivatives as HIV aspartyl protease inhibitors” (Pharmacor Inc., priority 1999, dated 2001)

molecular target: T1, recombinant HIV-1 protease (Human immunodeficiency virus type 1 group M subtype B, UniProt P04585); assay: Fluorometric (FRET) enzymatic assay for the inhibition constant (Ki) against the HIV protease; type: biochemical; conditions: not given
T1 construct: recombinant HIV-1 protease; purchased Bachem Bioscience
Text: Enzymatic Assay for Determining the Inhibition Constant (Ki) of Synthetic Compounds Prepared Against the HIV Protease
This is a fluorometric assay based on the cleavage by protease of a substrate carrying a donor group (EDANS, excitation at 340 nm and emission at 490 nm) and an acceptor group (DABCYL) on each side of the cleavage site, interacting together through fluorescence resonance energy transfer (FRET). Cleavage of the substrate by protease stops energy exchange between the two groups, resulting in a time-dependent increase in fluorescence intensity that is linearly related to the extent of substrate hydrolysis.
The enzymatic assay is done at 30° C. in a spectrophotometer microcuvet, in a total volume of 400 μL. The apparatus used for readings is a UV-visible Cary 1 spectrophotometer made by Varian. The reaction is run first in the absence of protease inhibitors for 2 min, using 355 μL of buffer at pH 4.7 (sodium acetate 100 mM, NaCl 1 M, EDTA 1 mM, DTT 1 mM, dimethylsulfoxide 10%, and BSA 1 mg/mL), 40 μL of substrate H-2930 from Molecular Probes (final concentration 10 μM) and 5 μL of recombinant HIV-1 protease (final concentration 18.3 nM) purchased from Bachem Bioscience. Fluorescence readings at […] are taken continuously during the reaction, allowing determination of the enzyme's initial velocity (v0). At the end of the 2 min incubation, the potential inhibitor at a defined concentration in a volume of 2 μL is added to the reaction, and fluorescence readings are taken for another 2 min, allowing determination of enzyme velocity (vi) in the presence of the inhibitory compound. Several concentrations of the putative inhibitors are tested in the assay. After calculation of vo and vi, the inhibition constant (Ki) of the compound is determined using the equation of Henderson: [formula]
and [I]=inhibitor concentration, [S ]=substrate concentration, Km=Michaelis-Menten constant, Kiapp =apparent Ki
Note that the Michaelis-Menten constant of HIV protease is determined by running the assay without inhibitors, using several concentrations of substrate, and plotting the results as a Cornish-Bowden graph with the ratio substrate concentration/velocity as the ordinate and substrate concentration as the abscissa.

Ki | Structure (SMILES)
3.7 µM | O[C@@H]([C@H](O)[C@@H](COCc1ccccc1)OCc1ccccc1F)[C@@H](COCc1ccccc1)OCc1ccccc1F [Compound 21, 1,6-di-O-benzyl-2,5-di-O-(2-fluorobenzyl)-D-mannitol]
0.33 µM | O[C@@H]([C@H](O)[C@@H](COCc1c(F)cccc1F)OCc1ccc(F)cc1)[C@@H](COCc1c(F)cccc1F)OCc1ccc(F)cc1 [Compound 39, 1,6-di-O-(2,6-difluorobenzyl)-2,5-di-O-(4-fluorobenzyl)-D-mannitol]

same assay, conditions: Table 1, benzylated D-mannitol derivatives; pH 4.7, 30° C., substrate 10 μM, protease 18.3 nM

Structure (SMILES) | Ki
Oc1cccc(CO[C@H](COCc2ccccc2)[C@@H](O)[C@H](O)[C@@H](COCc2ccccc2)OCc2cccc(O)c2)c1 [Compound 3, 1,6-di-O-benzyl-2,5-di-O-(3-hydroxybenzyl)-D-mannitol] | 6 µM
Oc1ccc(CO[C@H](COCc2ccccc2F)[C@@H](O)[C@H](O)[C@@H](COCc2ccccc2F)OCc2ccc(O)cc2)cc1 [Compound 5, 1,6-di-(2-fluorobenzyl)-2,5-di-(4-hydroxybenzyl)-D-mannitol] | 2.7 µM
O[C@@H]([C@H](O)[C@@H](COCc1ccccc1)OCc1ccc(OCc2ccccc2)cc1)[C@@H](COCc1ccccc1)OCc1ccc(OCc2ccccc2)cc1 [Compound 6, 1,6-di-O-benzyl-2,5-di-O-(4-benzyloxybenzyl)-D-mannitol] | < 1 µM
N#Cc1ccc(COC[C@@H](OCc2ccc(C#N)cc2)[C@@H](O)[C@H](O)[C@@H](COCc2ccc(C#N)cc2)OCc2ccc(C#N)cc2)cc1 [Compound 12, 1,2,5,6-tetra-O-(4-cyanobenzyl)-D-mannitol] | 3.1 µM
O[C@@H]([C@H](O)[C@@H](COCc1ccccc1)OCc1c(F)c(F)c(F)c(F)c1F)[C@@H](COCc1ccccc1)OCc1c(F)c(F)c(F)c(F)c1F [Compound 15, 1,6-di-O-benzyl-2,5-di-O-(pentafluorobenzyl)-D-mannitol] | > 5 µM
O[C@@H]([C@H](O)[C@@H](COCc1ccccc1)OCc1ccc(Cl)cc1)[C@@H](COCc1ccccc1)OCc1ccc(Cl)cc1 [Compound 17, 1,6-di-O-benzyl-2,5-di-O-(4-chlorobenzyl)-D-mannitol] | 2 µM
COC(=O)c1ccc(CO[C@H](COCc2ccccc2)[C@@H](O)[C@H](O)[C@@H](COCc2ccccc2)OCc2ccc(C(=O)OC)cc2)cc1 [Compound 19, 1,6-di-O-benzyl-2,5-di-O-(4-carbomethoxybenzyl)-D-mannitol] | 8.4 µM
Cc1ccc(CO[C@H](COCc2ccccc2)[C@@H](O)[C@H](O)[C@@H](COCc2ccccc2)OCc2ccc(C)cc2)cc1 [Compound 24, 1,6-di-O-benzyl-2,5-di-O-(4-methylbenzyl)-D-mannitol] | 3.7 µM
O[C@@H]([C@H](O)[C@@H](COCc1ccccc1)OCc1c(F)cccc1F)[C@@H](COCc1ccccc1)OCc1c(F)cccc1F [Compound 25, 1,6-di-O-benzyl-2,5-di-O-(2,6-difluorobenzyl)-D-mannitol] | 6.4 µM
N#Cc1ccc(COC[C@@H](OCc2ccccc2)[C@@H](O)[C@H](O)[C@@H](COCc2ccc(C#N)cc2)OCc2ccccc2)cc1 [Compound 28, 1,6-di-O-(4-cyanobenzyl)-2,5-di-O-benzyl-D-mannitol] | 4.3 µM
COC(=O)c1ccc(COC[C@@H](OCc2ccccc2)[C@@H](O)[C@H](O)[C@@H](COCc2ccc(C(=O)OC)cc2)OCc2ccccc2)cc1 [Compound 29, 1,6-di-O-(4-carbomethoxybenzyl)-2,5-di-O-benzyl-D-mannitol] | 2 µM
CC(C)COC(=O)c1ccc(COC[C@@H](OCc2ccccc2)[C@@H](O)[C@H](O)[C@@H](COCc2ccc(C(=O)OCC(C)C)cc2)OCc2ccccc2)cc1 [Compound 30, 1,6-di-O-(4-carboisobutoxybenzyl)-2,5-di-O-benzyl D-mannitol] | > 3 µM
O[C@@H]([C@H](O)[C@@H](COCc1ccc(F)cc1)OCc1ccccc1)[C@@H](COCc1ccc(F)cc1)OCc1ccccc1 [Compound 31, 1,6-di-O-(4-fluorobenzyl)-2,5-di-O-benzyl-D-mannitol] | 2.5 µM
O[C@@H]([C@H](O)[C@@H](COCc1ccc(F)cc1F)OCc1ccccc1)[C@@H](COCc1ccc(F)cc1F)OCc1ccccc1 [Compound 33, 1,6-di-O-(2,4-fluorobenzyl)-2,5-di-O-benzyl-D-mannitol] | 4.2 ± 0.5 µM
O[C@@H]([C@H](O)[C@@H](COCc1c(F)cccc1F)OCc1ccccc1)[C@@H](COCc1c(F)cccc1F)OCc1ccccc1 [Compound 35, 1,6-di-O-(2,6-difluorobenzyl)-2,5-di-O-benzyl-D-mannitol] | 0.33 ± 0.05 µM
Cc1ccccc1CO[C@H](COCc1ccccc1F)[C@@H](O)[C@H](O)[C@@H](COCc1ccccc1F)OCc1ccccc1C [Compound 38, 1,6-di-O-(2-fluorobenzyl)-2,5-di-O-(2-methylbenzyl)-D-mannitol] | 0.8 µM

The next lines start with the values.

Ki | Structure (SMILES)
0.4 µM | Oc1ccc(COC[C@@H](OCc2ccc(F)cc2)[C@@H](O)[C@H](O)[C@@H](COCc2ccc(O)cc2)OCc2ccc(F)cc2)cc1 [Compound 4, 1,6-di-O-(4-hydroxybenzyl)-2,5-di-O-(4-fluorobenzyl)-D-mannitol]
3.3 µM | Nc1ccc(CO[C@H](COCc2ccccc2)[C@@H](O)[C@H](O)[C@@H](COCc2ccccc2)OCc2ccccc2)cc1 [Compound 9, 1,2,6-tri-O-benzyl-5-O-(4-aminobenzyl)-D-mannitol]
0.4 µM | O[C@@H]([C@H](O)[C@@H](COCc1ccccc1F)OCc1ccccc1)[C@@H](COCc1ccccc1)OCc1ccccc1 [Compound 10, 1,2,5-tri-O-benzyl-6-O-(2-fluorobenzyl)-D-mannitol]
> 5 µM | O[C@@H]([C@H](O)[C@@H](COCc1ccc(C(F)(F)F)cc1)OCc1ccc(C(F)(F)F)cc1)[C@@H](COCc1ccc(C(F)(F)F)cc1)OCc1ccc(C(F)(F)F)cc1 [Compound 11, 1,2,5,6-tetra-O-(4-trifluoromethylbenzyl)-D-mannitol]
5.4 µM | N#Cc1ccc(CO[C@H](COCc2ccccc2)[C@@H](O)[C@H](O)[C@@H](COCc2ccccc2)OCc2ccc(C#N)cc2)cc1 [Compound 14, 1,6-di-O-benzyl-2,5-di-O-(4-cyanobenzyl)-D-mannitol]
0.7 µM | O[C@@H]([C@H](O)[C@@H](COCc1ccccc1)OCc1ccc(F)cc1)[C@@H](COCc1ccccc1)OCc1ccc(F)cc1 [Compound 16, 1,6-di-O-benzyl-2,5-di-O-(4-fluorobenzyl)-D-mannitol]
2.1 µM | O[C@@H]([C@H](O)[C@@H](COCc1ccccc1)OCc1ccc(Br)cc1)[C@@H](COCc1ccccc1)OCc1ccc(Br)cc1 [Compound 18, 1,6-di-O-benzyl, 2,5-di-O-(4-bromobenzyl)-D-mannitol]
1.8 µM | O[C@@H]([C@H](O)[C@@H](COCc1ccccc1)OCc1cccc(F)c1)[C@@H](COCc1ccccc1)OCc1cccc(F)c1 [Compound 20, 1,6-di-O-benzyl-2,5-di-O-(3-fluorobenzyl)-D-mannitol]
10 µM | O[C@@H]([C@H](O)[C@@H](COCc1ccccc1)OCc1ccc(C(F)(F)F)cc1)[C@@H](COCc1ccccc1)OCc1ccc(C(F)(F)F)cc1 [Compound 22, 1,6-di-O-benzyl-2,5-di-O-(4-trifluoromethylbenzyl)-D-mannitol]
2.6 ± 0.5 µM | O[C@@H]([C@H](O)[C@@H](COCc1ccccc1)OCc1ccc(F)cc1F)[C@@H](COCc1ccccc1)OCc1ccc(F)cc1F [Compound 23, 1,6-di-O-benzyl-2,5-di-O-(2,4-difluorobenzyl)-D-mannitol]
3 µM | Cc1ccc(COC[C@@H](OCc2ccccc2)[C@@H](O)[C@H](O)[C@@H](COCc2ccc(C)cc2)OCc2ccccc2)cc1 [Compound 26, 1,6-di-O-(4-methylbenzyl)-2,5-di-O-benzyl-D-mannitol]
> 2 µM | O[C@@H]([C@H](O)[C@@H](COCc1ccc(C(F)(F)F)cc1)OCc1ccccc1)[C@@H](COCc1ccc(C(F)(F)F)cc1)OCc1ccccc1 [Compound 27, 1,6-di-O-(4-trifluoromethylbenzyl)-2,5-di-O-benzyl-D-mannitol]
0.6 µM | O[C@@H]([C@H](O)[C@@H](COCc1ccccc1F)OCc1ccccc1)[C@@H](COCc1ccccc1F)OCc1ccccc1 [Compound 32, 1,6-di-O-(2-fluorobenzyl)-2,5-di-O-benzyl-D-mannitol]
1.9 µM | O[C@@H]([C@H](O)[C@@H](COCc1ccccc1F)OCc1ccc(Br)cc1)[C@@H](COCc1ccccc1F)OCc1ccc(Br)cc1 [Compound 34, 1,6-di-O-(2-fluorobenzyl)-2,5-di-O-(4-bromobenzyl)-D-mannitol]

same assay, conditions: Table 2, tetra-substituted D-mannitol derivatives; pH 4.7, 30° C., substrate 10 μM, protease 18.3 nM

Ki | Structure (SMILES)
0.8 µM | O[C@H]([C@@H](O)[C@H](COCc1cccs1)OCc1ccccc1)[C@H](COCc1cccs1)OCc1ccccc1 (stereo in doubt) [Compound 92, 1,6-di-O-(2-thienylmethyl)-2,5-di-O-benzyl-L-mannitol]
